Test results: PubChem BioAssay (NCI)
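Method: 48-hour compound exposure of cells in 96-well plates, five concentrations, linear interpolation of endpoints. TGI: total growth inhibition.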

How the values were obtained:
Assay in all cases: NCI tumour cell line growth inhibition, 48 h
786-0 renal = tested on: 786-0 renal
A498 renal = tested on: A498 renal
A549 NSCLC = tested on: A549 NSCLC
ACHN renal = tested on: ACHN renal
BT-549 breast = tested on: BT-549 breast
CAKI-1 renal = tested on: CAKI-1 renal
CCRF-CEM leukemia = tested on: CCRF-CEM leukemia
COLO 205 colon = tested on: COLO 205 colon
DU-145 prostate = tested on: DU-145 prostate
EKVX NSCLC = tested on: EKVX NSCLC
HCC-2998 colon = tested on: HCC-2998 colon
HCT-116 colon = tested on: HCT-116 colon
HCT-15 colon = tested on: HCT-15 colon
HL-60(TB) leukemia = tested on: HL-60(TB) leukemia
HOP-62 NSCLC = tested on: HOP-62 NSCLC
HOP-92 NSCLC = tested on: HOP-92 NSCLC
HS 578T breast = tested on: HS 578T breast
HT29 colon = tested on: HT29 colon
IGROV1 ovarian = tested on: IGROV1 ovarian
K-562 leukemia = tested on: K-562 leukemia
KM12 colon = tested on: KM12 colon
LOX IMVI melanoma = tested on: LOX IMVI melanoma
M14 melanoma = tested on: M14 melanoma
MALME-3M melanoma = tested on: MALME-3M melanoma
MCF7 breast = tested on: MCF7 breast
MDA-MB-231 breast = tested on: MDA-MB-231 breast
MDA-MB-435 = tested on: MDA-MB-435
MDA-N = tested on: MDA-N
MOLT-4 leukemia = tested on: MOLT-4 leukemia
NCI-H226 lung = tested on: NCI-H226 lung
NCI-H23 lung = tested on: NCI-H23 lung
NCI-H460 lung = tested on: NCI-H460 lung
NCI-H522 lung = tested on: NCI-H522 lung
NCI/ADR-RES ovarian = tested on: NCI/ADR-RES ovarian
OVCAR-3 ovarian = tested on: OVCAR-3 ovarian
OVCAR-4 ovarian = tested on: OVCAR-4 ovarian
OVCAR-5 ovarian = tested on: OVCAR-5 ovarian
OVCAR-8 ovarian = tested on: OVCAR-8 ovarian
PC-3 prostate = tested on: PC-3 prostate
RPMI-8226 leukemia = tested on: RPMI-8226 leukemia
RXF 393 renal = tested on: RXF 393 renal
SF-268 CNS = tested on: SF-268 CNS
SF-295 CNS = tested on: SF-295 CNS
SF-539 CNS = tested on: SF-539 CNS
SK-MEL-2 melanoma = tested on: SK-MEL-2 melanoma
SK-MEL-28 melanoma = tested on: SK-MEL-28 melanoma
SK-MEL-5 melanoma = tested on: SK-MEL-5 melanoma
SK-OV-3 ovarian = tested on: SK-OV-3 ovarian
SN12C renal = tested on: SN12C renal
SNB-19 CNS = tested on: SNB-19 CNS
SNB-75 CNS = tested on: SNB-75 CNS
SR leukemia = tested on: SR leukemia
SW-620 colon = tested on: SW-620 colon
T-47D breast = tested on: T-47D breast
TK-10 renal = tested on: TK-10 renal
U251 CNS = tested on: U251 CNS
UACC-257 melanoma = tested on: UACC-257 melanoma
UACC-62 melanoma = tested on: UACC-62 melanoma
UO-31 renal = tested on: UO-31 renal

COc1nc2nccnc2c(=O)n1C
TGI (786-0 renal): > 10 µM
TGI (A498 renal): > 10 µM
TGI (A549 NSCLC): > 10 µM
TGI (ACHN renal): > 10 µM
TGI (BT-549 breast): > 10 µM
TGI (CAKI-1 renal): > 10 µM
TGI (CCRF-CEM leukemia): > 10 µM
TGI (COLO 205 colon): > 10 µM
TGI (DU-145 prostate): > 10 µM
TGI (EKVX NSCLC): > 10 µM
TGI (HCC-2998 colon): > 10 µM
TGI (HCT-116 colon): > 10 µM
TGI (HCT-15 colon): > 10 µM
TGI (HL-60(TB) leukemia): > 10 µM
TGI (HOP-62 NSCLC): > 10 µM
TGI (HOP-92 NSCLC): > 10 µM
TGI (HS 578T breast): > 10 µM
TGI (HT29 colon): > 10 µM
TGI (IGROV1 ovarian): > 10 µM
TGI (K-562 leukemia): > 10 µM
TGI (KM12 colon): > 10 µM
TGI (LOX IMVI melanoma): > 10 µM
TGI (M14 melanoma): > 10 µM
TGI (MALME-3M melanoma): > 10 µM
TGI (MCF7 breast): > 10 µM
TGI (MDA-MB-231 breast): > 10 µM
TGI (MDA-MB-435): > 10 µM
TGI (MDA-N): > 10 µM
TGI (MOLT-4 leukemia): > 10 µM
TGI (NCI-H226 lung): > 10 µM
TGI (NCI-H23 lung): > 10 µM
TGI (NCI-H460 lung): > 10 µM
TGI (NCI-H522 lung): > 10 µM
TGI (NCI/ADR-RES ovarian): > 10 µM
TGI (OVCAR-3 ovarian): > 10 µM
TGI (OVCAR-4 ovarian): > 10 µM
TGI (OVCAR-5 ovarian): > 10 µM
TGI (OVCAR-8 ovarian): > 10 µM
TGI (PC-3 prostate): > 10 µM
TGI (RPMI-8226 leukemia): > 10 µM
TGI (RXF 393 renal): > 10 µM
TGI (SF-268 CNS): > 10 µM
TGI (SF-295 CNS): > 10 µM
TGI (SF-539 CNS): > 10 µM
TGI (SK-MEL-2 melanoma): > 10 µM
TGI (SK-MEL-28 melanoma): > 10 µM
TGI (SK-MEL-5 melanoma): > 10 µM
TGI (SK-OV-3 ovarian): > 10 µM
TGI (SN12C renal): > 10 µM
TGI (SNB-19 CNS): > 10 µM
TGI (SNB-75 CNS): > 10 µM
TGI (SR leukemia): > 10 µM
TGI (SW-620 colon): > 10 µM
TGI (T-47D breast): > 10 µM
TGI (TK-10 renal): > 10 µM
TGI (U251 CNS): > 10 µM
TGI (UACC-257 melanoma): > 10 µM
TGI (UACC-62 melanoma): > 10 µM
TGI (UO-31 renal): > 10 µM

COc1ccc(NS(=O)(=O)c2ccc(NC(NC(=O)CC(C)C)(C(F)(F)F)C(F)(F)F)cc2)nn1
TGI (786-0 renal): > 100 µM
TGI (A498 renal): > 100 µM
TGI (A549 NSCLC): > 100 µM
TGI (ACHN renal): > 100 µM
TGI (BT-549 breast): > 100 µM
TGI (CAKI-1 renal): > 100 µM
TGI (CCRF-CEM leukemia): > 100 µM
TGI (COLO 205 colon): > 100 µM
TGI (DU-145 prostate): > 100 µM
TGI (EKVX NSCLC): > 100 µM
TGI (HCC-2998 colon): > 100 µM
TGI (HCT-116 colon): > 100 µM
TGI (HCT-15 colon): > 100 µM
TGI (HL-60(TB) leukemia): > 100 µM
TGI (HOP-62 NSCLC): > 100 µM
TGI (HOP-92 NSCLC): > 100 µM
TGI (HS 578T breast): > 100 µM
TGI (HT29 colon): > 100 µM
TGI (IGROV1 ovarian): > 100 µM
TGI (K-562 leukemia): > 100 µM
TGI (KM12 colon): > 100 µM
TGI (LOX IMVI melanoma): > 100 µM
TGI (M14 melanoma): > 100 µM
TGI (MALME-3M melanoma): > 100 µM
TGI (MCF7 breast): > 100 µM
TGI (MDA-MB-231 breast): > 100 µM
TGI (MDA-MB-435): > 100 µM
TGI (MDA-N): > 100 µM
TGI (MOLT-4 leukemia): > 100 µM
TGI (NCI-H226 lung): > 100 µM
TGI (NCI-H23 lung): > 100 µM
TGI (NCI-H460 lung): > 100 µM
TGI (NCI-H522 lung): > 100 µM
TGI (NCI/ADR-RES ovarian): > 100 µM
TGI (OVCAR-3 ovarian): > 100 µM
TGI (OVCAR-4 ovarian): > 100 µM
TGI (OVCAR-5 ovarian): > 100 µM
TGI (OVCAR-8 ovarian): > 100 µM
TGI (PC-3 prostate): > 100 µM
TGI (RPMI-8226 leukemia): > 100 µM
TGI (RXF 393 renal): > 100 µM
TGI (SF-268 CNS): > 100 µM
TGI (SF-295 CNS): > 100 µM
TGI (SF-539 CNS): > 100 µM
TGI (SK-MEL-2 melanoma): > 100 µM
TGI (SK-MEL-28 melanoma): > 100 µM
TGI (SK-MEL-5 melanoma): > 100 µM
TGI (SK-OV-3 ovarian): > 100 µM
TGI (SN12C renal): > 100 µM
TGI (SNB-19 CNS): > 100 µM
TGI (SNB-75 CNS): > 100 µM
TGI (SR leukemia): > 100 µM
TGI (SW-620 colon): > 100 µM
TGI (T-47D breast): > 100 µM
TGI (TK-10 renal): > 100 µM
TGI (U251 CNS): > 100 µM
TGI (UACC-257 melanoma): > 100 µM
TGI (UACC-62 melanoma): > 100 µM
TGI (UO-31 renal): > 100 µM
